The values below come from patent US20090029992A1, “SUBSTITUTED PYRAZOLE COMPOUNDS” (priority 2007, published 2009).

Assay [1] has as its target T1, recombinant Aurora A (Homo sapiens, UniProt O14965).
T1 construct: purchased Upstate, Lake Placid, N.Y
T1 sequence (O14965 1-403): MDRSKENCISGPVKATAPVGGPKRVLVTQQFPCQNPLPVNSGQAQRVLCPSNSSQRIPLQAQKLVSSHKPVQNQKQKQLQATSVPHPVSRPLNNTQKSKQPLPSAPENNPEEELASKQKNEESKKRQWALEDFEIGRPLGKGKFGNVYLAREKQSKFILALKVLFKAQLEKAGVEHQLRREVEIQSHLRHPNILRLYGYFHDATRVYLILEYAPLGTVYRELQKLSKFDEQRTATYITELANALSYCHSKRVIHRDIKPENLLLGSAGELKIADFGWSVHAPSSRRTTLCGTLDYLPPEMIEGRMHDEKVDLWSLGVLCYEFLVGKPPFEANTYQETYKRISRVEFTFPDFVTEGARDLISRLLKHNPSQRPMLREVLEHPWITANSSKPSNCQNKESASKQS
Description: Aurora A (Aurora 2) inhibition assay, Z'-Lyte kinase assay. The class given is biochemical. The conditions noted are these: ATP 10 μM, 1 h. The essentials: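 Z'-Lyte FRET assay: Aurora A (200-500 ng/mL final), Ser/Thr 1 peptide (2 μM) and ATP (10 μM) in 50 mM HEPES pH 7.5, 10 mM MgCl2, 5 mM EGTA, 0.05% Brij-35, 2 mM DTT, 1 h at room temperature. Coumarin/fluorescein emission ratio converted to percent phosphorylation; dose-response curves plotted.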

Assay [2] deals with T2, N-terminal GST-tagged recombinant human Flt3, residues 564-end (Homo sapiens, UniProt P36888).
T2 construct: recombinant human Flt3, residues 564-end; GST (N); purchased Upstate USA Inc, 706 Forest Street, Charlottesville, Va
T2 sequence (P36888 564-993 limits assumed): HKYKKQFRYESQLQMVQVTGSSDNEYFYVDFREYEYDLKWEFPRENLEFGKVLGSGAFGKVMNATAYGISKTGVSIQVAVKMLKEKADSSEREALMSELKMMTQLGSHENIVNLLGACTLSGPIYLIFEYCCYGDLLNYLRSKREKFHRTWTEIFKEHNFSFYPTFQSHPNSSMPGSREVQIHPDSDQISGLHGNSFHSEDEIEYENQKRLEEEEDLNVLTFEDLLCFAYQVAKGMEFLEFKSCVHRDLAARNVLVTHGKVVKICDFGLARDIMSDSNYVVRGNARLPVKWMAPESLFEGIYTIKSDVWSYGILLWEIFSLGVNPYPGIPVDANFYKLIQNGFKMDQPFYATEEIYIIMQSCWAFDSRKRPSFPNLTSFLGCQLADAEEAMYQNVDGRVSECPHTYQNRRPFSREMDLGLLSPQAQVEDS
Description: Flt3 kinase inhibition assay (33P-ATP filter assay). The class given is biochemical. The conditions noted are these: 40 minutes at room temperature. The essentials: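 Serial compound dilutions incubated 40 min at room temperature with 5-10 mU Flt3 kinase, 50 μM peptide substrate and [γ-33P]ATP/10 mM magnesium acetate, pH 7.0. Phosphoric acid stop, filter capture and scintillation counting; activity compared with uninhibited reactions.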

[3] abbreviates: group with IC50 greater than 100 nM.

As for `Cc1cc(Nc2cc(N3CCN(C)CC3)nc(-c3ccc(F)cc3)n2)n[nH]1` [Compound 32, 2-(4-fluorophenyl)-N-(5-methyl-1H-pyrazol-3-yl)-6-(4-methylpiperazin-1-yl)pyrimidin-4-amine], the IC50 in assay [1] and in assay [2] was ≤ 0.1 µM throughout.

With `Cc1cc(Nc2cc(NC3CCOCC3)nc(-c3cccc4ccoc34)n2)n[nH]1` [Example 204, 2-(benzofuran-7-yl)-N^4-(5-methyl-1H-pyrazol-3-yl)-N^6-(tetrahydro-2H-pyran-4-yl)pyrimidine-4,6-diamine], the half-maximal inhibitory concentration (IC50) in assay [1] (setting [3]) was ≤ 1 µM; in assay [2] it was ≤ 0.1 µM.

With `Cc1cc(Nc2cc(NC3CCOCC3)nc(-c3cccc(N(C)C)c3)n2)n[nH]1` [Compound 74, 2-(3-(dimethylamino)phenyl)-N^4-(5-methyl-1H-pyrazol-3-yl)-N^6-(tetrahydro-2H-pyran-4-yl)pyrimidine-4,6-diamine], the IC50 in assay [1] and in assay [2] was ≤ 0.1 µM in each case.

With `Cc1cc(Nc2cc(N3CCN(C)CC3)nc(-c3cccc(-c4ccccc4)c3)n2)n[nH]1` [Compound 16, 2-(biphenyl-3-yl)-N-(5-methyl-1H-pyrazol-3-yl)-6-(4-methylpiperazin-1-yl)pyrimidin-4-amine], the IC50 in assay [1] and in assay [2] was ≤ 0.1 µM in each case.

As to `COCCN(C)c1cc(Nc2cc(C)[nH]n2)nc(-c2ccccc2)n1` [Example 171, N^4-(2-methoxyethyl)-N^4-methyl-N^6-(5-methyl-1H-pyrazol-3-yl)-2-phenyl pyrimidine-4,6-diamine], the 50% inhibitory concentration (IC50) in assay [1] and in assay [2] was ≤ 0.1 µM throughout.

As to `Cc1cc(Nc2cc(N3CCC(O)CC3)nc(-c3cc4ccccc4n3C)n2)n[nH]1` [Compound 3, 1-(6-(5-methyl-1H-pyrazol-3-ylamino)-2-(1-methyl-1H-indol-2-yl)pyrimidin-4-yl)piperidin-4-ol], the concentration for half-maximal inhibition (IC50) in assay [1] and in assay [2] was ≤ 0.1 µM throughout.

For the compound `Cc1cc(C)cc(-c2nc(Nc3cc(C)[nH]n3)cc(N3CCN(C)CC3)n2)c1` [Example 169, 2-(3,5-dimethylphenyl)-N-(5-methyl-1H-pyrazol-3-yl)-6-(4-methylpiperazin-1-yl)pyrimidin-4-amine], the half-inhibitory concentration (IC50) in assay [1] and in assay [2] was ≤ 0.1 µM each time.

With `Cc1cc(Nc2cc(NC3CCOCC3)nc(-c3cc4cc(NS(=O)(=O)C5CC5)ccc4o3)n2)n[nH]1` [Example 156, N-(2-(4-(5-methyl-1H-pyrazol-3-ylamino)-6-(tetrahydro-2H-pyran-4-ylamino)pyrimidin-2-yl)benzofuran-5-yl)cyclopropanesulfonamide], the IC50 in assay [1] and in assay [2] was ≤ 0.1 µM throughout.

For `Cc1cc(Nc2cc(N3CCN(C)CC3)nc(-c3cccc(F)c3F)n2)n[nH]1` [Example 200], the half-maximal inhibitory concentration (IC50) is ≤ 1 µM in assay [1] (setting [3]) and ≤ 0.1 µM in assay [2].

With `Cc1cc(Nc2cc(NC3CCOCC3)nc(-c3ccccc3)n2)n[nH]1` [Compound 12, N^4-(tetrahydro-2H-pyran-4-yl)-N^6-(5-methyl-1H-pyrazol-3-yl)-2-phenylpyrimidine-4,6-diamine], the half-inhibitory concentration (IC50) in assay [1] and in assay [2] was ≤ 0.1 µM throughout.

For the compound `Cc1cc(Nc2cc(NC3CCOCC3)nc(-c3cc(F)ccc3F)n2)n[nH]1` [Example 185, 2-(2,5-difluorophenyl)-N^4-(5-methyl-1H-pyrazol-3-yl)-N^6-(tetrahydro-2H-pyran-4-yl)pyrimidine-4,6-diamine], the IC50 in assay [1] and in assay [2] was ≤ 0.1 µM each time.

Turning to `Cc1cc(Nc2cc(N3CCN(C)CC3)nc(-c3ccc(F)c(F)c3)n2)n[nH]1` [Example 168, 2-(3,4-difluorophenyl)-N-(5-methyl-1H-pyrazol-3-yl)-6-(4-methylpiperazin-1-yl)pyrimidin-4-amine], the IC50 in assay [1] and in assay [2] was ≤ 0.1 µM in each case.

On to `Cc1cc(Nc2cc(N3CCN(C)CC3)nc(-c3cccnc3)n2)n[nH]1` [Compound 89, N-(5-methyl-1H-pyrazol-3-yl)-6-(4-methylpiperazin-1-yl)-2-(pyridin-3-yl)pyrimidin-4-amine], for which the IC50 in assay [1] and in assay [2] was ≤ 0.1 µM each time.

Turning to `Cc1cc(Nc2cc(N3CCN(C)CC3)nc(-c3cccc4ccoc34)n2)n[nH]1` [Example 203, 2-(benzofuran-7-yl)-N-(5-methyl-1H-pyrazol-3-yl)-6-(4-methylpiperazin-1-yl)pyrimidin-4-amine], the IC50 in assay [1] and in assay [2] was ≤ 0.1 µM each time.

As to `Cc1cc(Nc2cc(N3CCN(C)CC3)nc(-c3ccc(N(C)C)cc3)n2)n[nH]1` [Compound 85, 2-(4-(dimethylamino)prenyl)-N-(b-methyl-1H-pyrazol-3-yl)-6-(4-methylpiperazin-1-yl)pyrimidin-4-amine], the IC50 in assay [1] and in assay [2] was ≤ 0.1 µM in each case.

Turning to `Cc1cc(Nc2cc(N3CCN(C)CC3)nc(-c3cccc(C)c3C)n2)n[nH]1` [Example 179, 2-(2,3-dimethylphenyl)-N-(5-methyl-1H-pyrazol-3-yl)-6-(4-methylpiperazin-1-yl)pyrimidin-4-amine], the IC50 in assay [1] (setting [3]) was ≤ 1 µM; in assay [2], ≤ 0.1 µM.

With `COc1ccc(-c2nc(Nc3cc(C)[nH]n3)cc(N(C)CCN(C)C)n2)cc1` [Compound 54, N^4-(2-(dimethylamino)ethyl)-2-(4-methoxyphenyl)-N^4-methyl-N^6-(5-methyl-1H-pyrazol-3-yl)pyrimidine-4,6-diamine], the IC50 in assay [1] (setting [3]) was ≤ 1 µM; in assay [2], ≤ 0.1 µM.

Turning to `Cc1cc(Nc2cc(N3CCN(C)CC3)nc(-c3ccc4c(c3)OCO4)n2)n[nH]1` [Example 139, 2-(benzo[d][1,3]dioxol-5-yl)-N-(5-methyl-1H-pyrazol-3-yl)-6-(4-methylpiperazin-1-yl)pyrimidin-4-amine], the IC50 in assay [1] and in assay [2] was ≤ 0.1 µM each time.

Turning to `Cc1cc(Nc2cc(N3CCN(C)CC3)nc(-c3cccc(C#N)c3)n2)n[nH]1` [Example 163, 3-(4-(5-methyl-1H-pyrazol-3-ylamino)-6-(4-methylpiperazin-1-yl)pyrimidin-2-yl)benzonitrile], the IC50 in assay [1] and in assay [2] was ≤ 0.1 µM throughout.

As for `Cc1cc(Nc2cc(NCCN3CCN(C)CC3)nc(-c3ccccc3)n2)n[nH]1` [Compound 13, N^4-(5-methyl-1H-pyrazol-3-yl)-N^6-(2-(4-methylpiperazin-1-yl)ethyl)-2-phenylpyrimidine-4,6-diamine], the concentration for half-maximal inhibition (IC50) is ≤ 1 µM in assay [1] (setting [3]) and ≤ 0.1 µM in assay [2].

As for `COCCN(C)c1cc(Nc2cc(C)[nH]n2)nc(-c2cc(F)ccc2F)n1` [Example 184, 2-(2,5-difluorophenyl)-N^4-(2-methoxyethyl)-N^4-methyl-N^6-(5-methyl-1H-pyrazol-3-yl)pyrimidine-4,6-diamine], the IC50 in assay [1] (setting [3]) is ≤ 1 µM; in assay [2], ≤ 0.1 µM.

For `Cc1cc(Nc2cc(N(C)CCN(C)C)nc(-c3ccccc3)n2)n[nH]1` [Compound 9, N^4-(2-(dimethylamino)ethyl)-N^4-methyl-N^6-(5-methyl-1H-pyrazol-3-yl)-2-phenylpyrimidine-4,6-diamine], the half-inhibitory concentration (IC50) in assay [1] (setting [3]) was ≤ 1 µM; in assay [2], ≤ 0.1 µM.

Consider `Cc1cc(Nc2cc(N3CCN(C)CC3)nc(-c3cc(F)cc(F)c3)n2)n[nH]1` [Example 170, 2-(3,5-difluorophenyl)-N-(5-methyl-1H-pyrazol-3-yl)-6-(4-methylpiperazin-1-yl)pyrimidin-4-amine], for which the concentration for half-maximal inhibition (IC50) in assay [1] and in assay [2] was ≤ 0.1 µM in each case.
